According to patent publication US12214092B2, “Systems and methods for treating biological fluids” (Cerus Corporation, priority 2017, dated 2025):

What was measured:
feline calicivirus (FCV) = assay: Photochemical inactivation of FCV in platelets (35% plasma/65% PAS) with amotosalen and 340 nm UVA, plaque assay; format: cell-based
platelets = assay: Platelet quality, platelets in 100% plasma: 75 μM amotosalen + 340 nm (~6.4 or ~7.2 J/cm^2) or 150 μM + INT-100 (~3.6 J/cm^2, with CAD); format: cell-based

Cc1oc2c(C)c3oc(=O)cc(C)c3cc2c1COCCN [S-59, 3-(2-aminoethoxymethyl)-2,5,9-trimethylfuro[3,2-g]chromen-7-one]
Log inactivation (feline calicivirus (FCV); 15 μM, 4 hr incubation, 340 nm ~3 J/cm^2): 2.7 log PFU/mL | Log inactivation (feline calicivirus (FCV); 15 μM, 8 hr incubation, 340 nm ~3 J/cm^2): 4.2 log PFU/mL | Log inactivation (feline calicivirus (FCV); 15 μM, 8 hr, 340 nm ~3 J/cm^2 Top Only): 4.1 log PFU/mL | Log inactivation (feline calicivirus (FCV); 15 μM, 8 hr, 340 nm ~3 J/cm^2 Top/Bottom): 3.9 log PFU/mL | Log inactivation (feline calicivirus (FCV); 15 μM, 24 hr incubation, 340 nm ~3 J/cm^2): >5.6 log PFU/mL | Log inactivation (feline calicivirus (FCV); 15 μM, 24 hr, 340 nm ~3 J/cm^2 Top Only): >6.3 log PFU/mL | Log inactivation (feline calicivirus (FCV); 15 μM, 24 hr, 340 nm ~3 J/cm^2 Top/Bottom): >6.3 log PFU/mL | Log inactivation (feline calicivirus (FCV); 30 μM, 4 hr incubation, 340 nm ~3 J/cm^2): 4.0 log PFU/mL | Log inactivation (feline calicivirus (FCV); 30 μM, 8 hr incubation, 340 nm ~3 J/cm^2): >5.6 log PFU/mL | Log inactivation (feline calicivirus (FCV); 30 μM, 8 hr, 340 nm ~3 J/cm^2 Top Only): >6.3 log PFU/mL | Log inactivation (feline calicivirus (FCV); 30 μM, 8 hr, 340 nm ~3 J/cm^2 Top/Bottom): 6.3 log PFU/mL | Log inactivation (feline calicivirus (FCV); 30 μM, 24 hr incubation, 340 nm ~3 J/cm^2): >5.6 log PFU/mL | Log inactivation (feline calicivirus (FCV); 30 μM, 24 hr, 340 nm ~3 J/cm^2 Top Only): >6.3 log PFU/mL | Log inactivation (feline calicivirus (FCV); 30 μM, 24 hr, 340 nm ~3 J/cm^2 Top/Bottom): >6.3 log PFU/mL | Log inactivation (feline calicivirus (FCV); 90 μM, 4 hr incubation, 340 nm ~3 J/cm^2): >5.6 log PFU/mL | Log inactivation (feline calicivirus (FCV); 90 μM, 8 hr incubation, 340 nm ~3 J/cm^2): >5.6 log PFU/mL | Log inactivation (feline calicivirus (FCV); 90 μM, 24 hr incubation, 340 nm ~3 J/cm^2): >5.6 log PFU/mL | Log inactivation (feline calicivirus (FCV); 150 μM, 0 hr incubation, 340 nm, more than twice ~3 J/cm^2): 2.5 log PFU/mL | Log inactivation (feline calicivirus (FCV); 150 μM, 0 hr, 340 nm Top Only (1-sided)): 4.6 log PFU/mL | Log inactivation (feline calicivirus (FCV); 150 μM, 0 hr, 340 nm Top/Bottom (2-sided)): 3.5 log PFU/mL | Extent of Shape Change (ESC) (platelets; 340/~6.4, D5): 22.15 | Hypotonic Shock Response (HSR) (platelets; 340/~6.4, D5): 56.50 | Morphology (Kunicki score) (platelets; 340/~6.4, D5): 271.50 | P-selectin (CD62P) (platelets; 340/~6.4, D5): 51.70 | pCO2 (platelets; 340/~6.4, D5): 35.00 mmHg | pH @ 22° C. (platelets; 340/~6.4, D5): 7.15 | pH @ 37° C. (platelets; 340/~6.4, D5): 6.92 | pO2 (platelets; 340/~6.4, D5): 59.75 mmHg | Extent of Shape Change (ESC) (platelets; 340/~6.4, D7): 16.45 | Hypotonic Shock Response (HSR) (platelets; 340/~6.4, D7): 45.98 | Morphology (Kunicki score) (platelets; 340/~6.4, D7): 259.00 | P-selectin (CD62P) (platelets; 340/~6.4, D7): 67.65 | pCO2 (platelets; 340/~6.4, D7): 30.95 mmHg | pH @ 22° C. (platelets; 340/~6.4, D7): 6.95 | pH @ 37° C. (platelets; 340/~6.4, D7): 6.72 | pO2 (platelets; 340/~6.4, D7): 61.80 mmHg | pCO2 (platelets; 340/~6.4, Post-UVA): 43.60 mmHg | pH @ 22° C. (platelets; 340/~6.4, Post-UVA): 7.30 | pH @ 37° C. (platelets; 340/~6.4, Post-UVA): 7.07 | pO2 (platelets; 340/~6.4, Post-UVA): 42.90 mmHg | Extent of Shape Change (ESC) (platelets; 340/~6.4, Pre-UVA): 20.60 | Hypotonic Shock Response (HSR) (platelets; 340/~6.4, Pre-UVA): 45.40 | Morphology (Kunicki score) (platelets; 340/~6.4, Pre-UVA): 265.50 | P-selectin (CD62P) (platelets; 340/~6.4, Pre-UVA): 31.95 | pCO2 (platelets; 340/~6.4, Pre-UVA): 55.20 mmHg | pH @ 22° C. (platelets; 340/~6.4, Pre-UVA): 7.29 | pH @ 37° C. (platelets; 340/~6.4, Pre-UVA): 7.06 | pO2 (platelets; 340/~6.4, Pre-UVA): 37.60 mmHg | Extent of Shape Change (ESC) (platelets; 340/~7.2, D5): 26.73 | Hypotonic Shock Response (HSR) (platelets; 340/~7.2, D5): 51.87 | Morphology (Kunicki score) (platelets; 340/~7.2, D5): 287.67 | P-selectin (CD62P) (platelets; 340/~7.2, D5): 45.00 | pCO2 (platelets; 340/~7.2, D5): 37.47 mmHg | pH @ 22° C. (platelets; 340/~7.2, D5): 7.11 | pH @ 37° C. (platelets; 340/~7.2, D5): 6.88 | pO2 (platelets; 340/~7.2, D5): 49.33 mmHg | Extent of Shape Change (ESC) (platelets; 340/~7.2, D7): 19.47 | Hypotonic Shock Response (HSR) (platelets; 340/~7.2, D7): 49.47 | Morphology (Kunicki score) (platelets; 340/~7.2, D7): 254.67 | P-selectin (CD62P) (platelets; 340/~7.2, D7): 56.93 | pCO2 (platelets; 340/~7.2, D7): 32.70 mmHg | pH @ 22° C. (platelets; 340/~7.2, D7): 6.94 | pH @ 37° C. (platelets; 340/~7.2, D7): 6.72 | pO2 (platelets; 340/~7.2, D7): 56.07 mmHg | pCO2 (platelets; 340/~7.2, Post-UVA): 47.23 mmHg | pH @ 22° C. (platelets; 340/~7.2, Post-UVA): 7.32 | pH @ 37° C. (platelets; 340/~7.2, Post-UVA): 7.09 | pO2 (platelets; 340/~7.2, Post-UVA): 32.93 mmHg | Extent of Shape Change (ESC) (platelets; 340/~7.2, Pre-UVA): 23.50 | Hypotonic Shock Response (HSR) (platelets; 340/~7.2, Pre-UVA): 49.67 | Morphology (Kunicki score) (platelets; 340/~7.2, Pre-UVA): 279.33 | P-selectin (CD62P) (platelets; 340/~7.2, Pre-UVA): 27.77
